The record followed here is PubChem BioAssay (NCI).

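Exposure lasted 48 hours, with cells grown in 96-well plates and compounds tested at five concentrations. TGI: total growth inhibition.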 Some results are limits rather than exact numbers.

The first experiment relates to MOLT-4 leukemia. Description: inhibition of tumour cell growth, NCI panel, 48 h.
As for `CNC(=S)OCCC(C)CCCC(C)C` (stereo not drawn), the TGI is 27.1 µM.

For a further experiment, the system named is NCI-H226 lung. Put plainly: inhibition of tumour cell growth, NCI panel, 48 h.
For the compound `CNS(=O)(=O)NNS(=O)(=O)c1ccccc1`, the TGI was > 100 µM.

On to `OCC1=CC(NC2CC(CO)C(O)C(O)C2O)C(O)C(O)C1O` (stereo not drawn), for which the TGI is > 100 µM.

Turning to `O=C1C=CC(=O)c2c1ccc1c3ccccc3n(CCCCCCCCCCCCn3c4ccccc4c4ccc5c(c43)C(=O)C=CC5=O)c21`, the TGI was > 100 µM.

The test system of another experiment is NCI-H23 lung. Description: inhibition of tumour cell growth, NCI panel, 48 h.
For the compound `CNS(=O)(=O)NNS(=O)(=O)c1ccccc1`, the TGI was > 100 µM.

In the case of `OCC1=CC(NC2CC(CO)C(O)C(O)C2O)C(O)C(O)C1O` (stereo not drawn), the TGI was > 100 µM.

In the case of `O=C1C=CC(=O)c2c1ccc1c3ccccc3n(CCCCCCCCCCCCn3c4ccccc4c4ccc5c(c43)C(=O)C=CC5=O)c21`, the TGI was > 100 µM.

Compound `CNC(=S)OCCC(C)CCCC(C)C` (stereo not drawn) gave a TGI of 36.6 µM.

The subject of a further experiment is NCI-H460 lung. Description: inhibition of tumour cell growth, NCI panel, 48 h.
Turning to `CNS(=O)(=O)NNS(=O)(=O)c1ccccc1`, the TGI was > 100 µM.

`OCC1=CC(NC2CC(CO)C(O)C(O)C2O)C(O)C(O)C1O` (stereo not drawn): the TGI is > 100 µM.

In the case of `O=C1C=CC(=O)c2c1ccc1c3ccccc3n(CCCCCCCCCCCCn3c4ccccc4c4ccc5c(c43)C(=O)C=CC5=O)c21`, the TGI was > 100 µM.

As for `CNC(=S)OCCC(C)CCCC(C)C` (stereo not drawn), the TGI came to 35.2 µM.

The subject of a further experiment is NCI-H522 lung. Description: inhibition of tumour cell growth, NCI panel, 48 h.
`CNS(=O)(=O)NNS(=O)(=O)c1ccccc1`: the TGI is > 100 µM.

As to `OCC1=CC(NC2CC(CO)C(O)C(O)C2O)C(O)C(O)C1O` (stereo not drawn), the TGI was > 100 µM.

With `O=C1C=CC(=O)c2c1ccc1c3ccccc3n(CCCCCCCCCCCCn3c4ccccc4c4ccc5c(c43)C(=O)C=CC5=O)c21`, the TGI was > 100 µM.

For the next experiment, the system named is NCI/ADR-RES ovarian. Description: inhibition of tumour cell growth, NCI panel, 48 h.
Consider `O=C1C=CC(=O)c2c1ccc1c3ccccc3n(CCCCCCCCCCCCn3c4ccccc4c4ccc5c(c43)C(=O)C=CC5=O)c21`, for which the TGI was > 100 µM.

A further experiment deals with OVCAR-3 ovarian. Description: inhibition of tumour cell growth, NCI panel, 48 h.
On to `CNS(=O)(=O)NNS(=O)(=O)c1ccccc1`, for which the TGI was > 100 µM.

As to `OCC1=CC(NC2CC(CO)C(O)C(O)C2O)C(O)C(O)C1O` (stereo not drawn), the TGI is > 100 µM.

On to `O=C1C=CC(=O)c2c1ccc1c3ccccc3n(CCCCCCCCCCCCn3c4ccccc4c4ccc5c(c43)C(=O)C=CC5=O)c21`, for which the TGI is > 100 µM.

Another experiment deals with OVCAR-4 ovarian. Put plainly: inhibition of tumour cell growth, NCI panel, 48 h.
For the compound `O=C1C=CC(=O)c2c1ccc1c3ccccc3n(CCCCCCCCCCCCn3c4ccccc4c4ccc5c(c43)C(=O)C=CC5=O)c21`, the TGI was > 100 µM.

In turn, `CNC(=S)OCCC(C)CCCC(C)C` (stereo not drawn) showed a TGI of 30.9 µM.

The subject of another experiment is OVCAR-5 ovarian. Put plainly: inhibition of tumour cell growth, NCI panel, 48 h.
In the case of `CNS(=O)(=O)NNS(=O)(=O)c1ccccc1`, the TGI was > 100 µM.

Consider `O=C1C=CC(=O)c2c1ccc1c3ccccc3n(CCCCCCCCCCCCn3c4ccccc4c4ccc5c(c43)C(=O)C=CC5=O)c21`, for which the TGI was > 100 µM.

In turn, `CNC(=S)OCCC(C)CCCC(C)C` (stereo not drawn) showed a TGI of 23.9 µM.

The test system of another experiment is OVCAR-8 ovarian. Put plainly: inhibition of tumour cell growth, NCI panel, 48 h.
As to `CNS(=O)(=O)NNS(=O)(=O)c1ccccc1`, the TGI is > 100 µM.

As for `OCC1=CC(NC2CC(CO)C(O)C(O)C2O)C(O)C(O)C1O` (stereo not drawn), the TGI is > 100 µM.

With `O=C1C=CC(=O)c2c1ccc1c3ccccc3n(CCCCCCCCCCCCn3c4ccccc4c4ccc5c(c43)C(=O)C=CC5=O)c21`, the TGI was > 100 µM.

`CNC(=S)OCCC(C)CCCC(C)C` (stereo not drawn): the TGI was 31.5 µM.

The next experiment deals with PC-3 prostate. Description: inhibition of tumour cell growth, NCI panel, 48 h.
For the compound `O=C1C=CC(=O)c2c1ccc1c3ccccc3n(CCCCCCCCCCCCn3c4ccccc4c4ccc5c(c43)C(=O)C=CC5=O)c21`, the TGI is > 100 µM.

The test system of the next experiment is RPMI-8226 leukemia. Put plainly: inhibition of tumour cell growth, NCI panel, 48 h.
Consider `CNS(=O)(=O)NNS(=O)(=O)c1ccccc1`, for which the TGI is > 100 µM.

Consider `OCC1=CC(NC2CC(CO)C(O)C(O)C2O)C(O)C(O)C1O` (stereo not drawn), for which the TGI was > 100 µM.

In the case of `O=C1C=CC(=O)c2c1ccc1c3ccccc3n(CCCCCCCCCCCCn3c4ccccc4c4ccc5c(c43)C(=O)C=CC5=O)c21`, the TGI was > 100 µM.

`CNC(=S)OCCC(C)CCCC(C)C` (stereo not drawn) came in with a TGI of 26.8 µM.

The subject of another experiment is RXF 393 renal. Put plainly: inhibition of tumour cell growth, NCI panel, 48 h.
In the case of `CNS(=O)(=O)NNS(=O)(=O)c1ccccc1`, the TGI was > 100 µM.

Take `OCC1=CC(NC2CC(CO)C(O)C(O)C2O)C(O)C(O)C1O` (stereo not drawn): the TGI is > 100 µM.

In the case of `O=C1C=CC(=O)c2c1ccc1c3ccccc3n(CCCCCCCCCCCCn3c4ccccc4c4ccc5c(c43)C(=O)C=CC5=O)c21`, the TGI is > 100 µM.

`CNC(=S)OCCC(C)CCCC(C)C` (stereo not drawn) yielded a TGI of 30.3 µM.

For another experiment, the system named is SF-268 CNS. Description: inhibition of tumour cell growth, NCI panel, 48 h.
On to `CNS(=O)(=O)NNS(=O)(=O)c1ccccc1`, for which the TGI is > 100 µM.

On to `O=C1C=CC(=O)c2c1ccc1c3ccccc3n(CCCCCCCCCCCCn3c4ccccc4c4ccc5c(c43)C(=O)C=CC5=O)c21`, for which the TGI is > 100 µM.

Regarding `CNC(=S)OCCC(C)CCCC(C)C` (stereo not drawn), the TGI was 30.7 µM.

In a further experiment the test system is SF-295 CNS. Description: inhibition of tumour cell growth, NCI panel, 48 h.
Take `CNS(=O)(=O)NNS(=O)(=O)c1ccccc1`: the TGI is > 100 µM.

With `OCC1=CC(NC2CC(CO)C(O)C(O)C2O)C(O)C(O)C1O` (stereo not drawn), the TGI was > 100 µM.

For `O=C1C=CC(=O)c2c1ccc1c3ccccc3n(CCCCCCCCCCCCn3c4ccccc4c4ccc5c(c43)C(=O)C=CC5=O)c21`, the TGI was > 100 µM.

For `CNC(=S)OCCC(C)CCCC(C)C` (stereo not drawn), the TGI stood at 36 µM.

The next experiment concerns SF-539 CNS. Description: inhibition of tumour cell growth, NCI panel, 48 h.
Take `CNS(=O)(=O)NNS(=O)(=O)c1ccccc1`: the TGI is > 100 µM.

`OCC1=CC(NC2CC(CO)C(O)C(O)C2O)C(O)C(O)C1O` (stereo not drawn): the TGI is > 100 µM.

Take `O=C1C=CC(=O)c2c1ccc1c3ccccc3n(CCCCCCCCCCCCn3c4ccccc4c4ccc5c(c43)C(=O)C=CC5=O)c21`: the TGI was > 100 µM.

Compound `CNC(=S)OCCC(C)CCCC(C)C` (stereo not drawn) returned a TGI of 30.6 µM.

The next experiment deals with SK-MEL-2 melanoma. Description: inhibition of tumour cell growth, NCI panel, 48 h.
As for `CNS(=O)(=O)NNS(=O)(=O)c1ccccc1`, the TGI was > 100 µM.

As for `O=C1C=CC(=O)c2c1ccc1c3ccccc3n(CCCCCCCCCCCCn3c4ccccc4c4ccc5c(c43)C(=O)C=CC5=O)c21`, the TGI is > 100 µM.

As to `CNC(=S)OCCC(C)CCCC(C)C` (stereo not drawn), the TGI stood at 26.7 µM.

For the next experiment, the system named is SK-MEL-28 melanoma. Put plainly: inhibition of tumour cell growth, NCI panel, 48 h.
As to `CNS(=O)(=O)NNS(=O)(=O)c1ccccc1`, the TGI was > 100 µM.

On to `OCC1=CC(NC2CC(CO)C(O)C(O)C2O)C(O)C(O)C1O` (stereo not drawn), for which the TGI is > 100 µM.
